Measured values taken from PMC8774364, “Anti-Colon Cancer Activity of Novel Peptides Isolated from In Vitro Digestion of Quinoa Protein in Caco-2 Cells” (Foods, 2022).
Read-outs that look alike come from different tables or passages of the source. Marks after values point to notes of the source that are not given here. Ends that are not written are not given here.

Key:
Caco-2 cells = format: cell-based, human; details: for Viable Cells (%): SD; for inhibition of Caco-2 proliferation: human, Caco-2, 72 h
Protocol: The human CRC cell line Caco-2 was obtained from American Type Cell Collection (ATCC, Manassas, VA, USA) and cultured in MEM medium supplemented with 20% FBS, 1% penicillin, and 1% streptomycin. Cells were maintained at 37 °C in a humidified incubator containing 5% CO2 and 95% air. The medium was changed every 24 h. All cells were assayed within 5–15 passages. Utilizing the CCK-8 kit (Biorigin, Beijing, China), the toxicity test was first performed. Caco-2 cells (100 µL) were incubated in the 96-well plate (1 × 10^5 cells/well) for 24 h, then the original medium was replaced with fresh medium containing different concentrations of QP (1–8 g/L), QPH (1–8 g/L), fraction MW < 5 kDa (1–8 g/L), fraction MW > 5 kDa (1–8 g/L), and selected peptides ranging from 0 to 2 g/L. After 24 h co-cultivation, the medium was discarded and washed with PBS 2 times, and a fresh medium with 10% CCK-8 reagent was added to each cell. Another 1 h later, the absorbance (OD value) was determined by an enzyme-labeling instrument at a wavelength of 450 nm. Experiments were performed in triplicate with at least three replicates per concentration, and results were expressed as percentage of negative control (non-treated Caco-2 cells).
For the proliferation experiments, Caco-2 cells were seeded into 96-well plates at a density of 2.5 × 10^4 per well for 24 h, the incubation was continued for 72 h. After that, the subsequent washing and CCK-8 reaction process were the same as performed in the toxicity test. Finally, the absorbance was also detected at 450 nm. Analyses were performed in triplicate with at least three replicates per concentration, and results were also shown as the percentage of non-treated Caco-2 cells.

HDAC1 = target: T1, HDAC1 (Homo sapiens, UniProt Q13547); assay: HDAC1 inhibitory activity assay (inhibitor screening kit, fluorescence); format: biochemical; details: for HDAC1 IC50 attained or not, in words: peptide 0.05–2 g/L tested; for IC50: peptide 0.05–2 g/L, 30 min at 37 °C, fluorescence, triplicate
T1 construct: purchased Abnova
Protocol: HDAC1 activity was determined using the HDAC1 inhibitor screening assay kit (Abnova, Taipei, Taiwan). The assay was performed according to the manufacture instruction manual. Briefly, the sample wells were added 140 µL assay buffer, 10 µL diluted HDAC1, and 10 µL peptide samples (0.05–2 g/L). The trichostatin A was set as the positive control, and the sample buffer was set as the negative control. We initiated the reactions by adding 10 µL of HDAC substrate to all the wells being used. Cover the plate with the plate cover and incubate on a shaker for 30 min at 37 °C. Remove the plate cover and add 40 µL of developer. Cover the plate with the plate cover and incubate for 15 min at room temperature. Remove the plate cover and read the fluorescence using an excitation wavelength of 340–360 nm and an emission wavelength of 440–465 nm. IC50 values were calculated using GraphPad Prism 8 software. Analyses were performed in triplicate with at least three replicates per concentration.

colon cancer cells = details: read-out: 50% inhibition; cited from earlier work
Excerpt: Histone acetylation and deacetylation are important for the regulation of gene expression. The family of HDACs includes 18 members, and class I HDACs (HDAC 1, 2, 3, and 8) is considered to be the most important ones. […] For example, HDAC1 expression was increased in colorectal cancer and gastric cancer. In contrast, HDAC1 knockdown causes cell cycle arrest, reduces cancer cell viability, and induces cancer cell apoptosis. Moreover, pharmacological inhibitors ...

[1] = Caco-2, CCK-8, peptide 1 g/L, % of non-treated cells, mean ± SD
[2] = Caco-2, CCK-8, peptide 1 × 10^−1 g/L, % of non-treated cells, mean ± SD
[3] = Caco-2, CCK-8, peptide 2 g/L, % of non-treated cells, mean ± SD
[4] = Caco-2, CCK-8, peptide 5 × 10^−1 g/L, % of non-treated cells, mean ± SD

T1 sequence (Q13547 whole entry): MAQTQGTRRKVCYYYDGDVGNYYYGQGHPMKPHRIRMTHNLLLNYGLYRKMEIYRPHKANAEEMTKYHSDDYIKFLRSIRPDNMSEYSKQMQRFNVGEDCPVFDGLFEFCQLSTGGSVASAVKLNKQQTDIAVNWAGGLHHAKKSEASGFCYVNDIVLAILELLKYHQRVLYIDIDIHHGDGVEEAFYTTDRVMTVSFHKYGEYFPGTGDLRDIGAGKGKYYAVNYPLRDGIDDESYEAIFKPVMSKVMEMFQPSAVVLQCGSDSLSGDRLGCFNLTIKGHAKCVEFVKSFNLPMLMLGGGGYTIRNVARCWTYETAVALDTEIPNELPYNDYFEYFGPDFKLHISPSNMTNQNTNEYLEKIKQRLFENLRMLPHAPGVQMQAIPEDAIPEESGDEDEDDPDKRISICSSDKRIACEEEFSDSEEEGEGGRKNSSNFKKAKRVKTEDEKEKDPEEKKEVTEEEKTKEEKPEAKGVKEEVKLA

Substance | Viable Cells (%) (Caco-2 cells; 24 h, 0.1 g/L) | Viable Cells (%) (Caco-2 cells; 24 h, 0.5 g/L) | Viable Cells (%) (Caco-2 cells; 24 h, 1 g/L) | Viable Cells (%) (Caco-2 cells; 24 h, 2 g/L) | inhibition of Caco-2 proliferation (Caco-2 cells; 1 g/L) | HDAC1 IC50 attained or not, in words (HDAC1) | Viable Cells (%) (Caco-2 cells; [1]) | Viable Cells (%) (Caco-2 cells; [2]) | Viable Cells (%) (Caco-2 cells; [3]) | Viable Cells (%) (Caco-2 cells; [4]) | IC50 (HDAC1) | IC50 (colon cancer cells)
PNFHPFPR [PNFHPFPR] | 90.46 ± 1.43 ^e % | 77.26 ± 1.65 ^f % | 65.32 ± 1.45 ^j % | 61.67 ± 1.64 ^i % | more than 30% | can reach to IC50 value |  |  |  |  |  | 
FGGGTLGHPW [quinoa peptide identified from QPH fraction < 5 kDa] |  |  |  |  |  |  | 90.41 ± 0.69 ^d % | 97.09 ± 0.74 ^c % | 89.72 ± 0.60 ^c % | 91.65 ± 0.43 ^c % |  | 
NIFRPF [quinoa peptide identified from QPH fraction < 5 kDa] |  |  |  |  |  | can reach to IC50 value | 70.29 ± 0.56 ^h % | 100.10 ± 1.03 ^a % | 70.55 ± 2.01 ^g % | 85.11 ± 0.66 ^d % |  | 
HYNPYFPGGA [HYNPYFPGGA] | 93.69 ± 0.68 ^d % | 82.34 ± 1.36 ^e % | 67.44 ± 1.26 ^i % | 67.10 ± 1.87 ^h % | more than 30% | can reach to IC50 value |  |  |  |  | 1650 µM | 
GLESPNYPWPH [quinoa peptide identified from QPH fraction < 5 kDa] |  |  |  |  |  |  | 97.40 ± 0.73 ^b % | 99.75 ± 1.06 ^a % | 97.70% | 99.32 ± 1.05 ^a % |  | 
NSLSLPNFHPFPR [quinoa peptide identified from QPH fraction < 5 kDa] |  |  |  |  |  |  | 86.55 ± 0.58 ^e % | 100.79 ± 0.52 ^a % | 83.56 ± 0.71 ^d % | 92.78 ± 2.20 ^c % |  | 
NSWGPNWGDHG [quinoa peptide identified from QPH fraction < 5 kDa] |  |  |  |  |  |  | 99.58 ± 1.08 ^a % | 98.87% | 97.92 ± 1.41 ^a % | 98.60 ± 2.28 ^a % |  | 
SVENWFPLPR [quinoa peptide identified from QPH fraction < 5 kDa] |  |  |  |  |  |  | 92.14 ± 0.69 ^c % | 99.43% | 91.04 ± 1.53 ^c % | 95.50 ± 3.60 ^b % |  | 
INNIFRPF [quinoa peptide identified from QPH fraction < 5 kDa] |  |  |  |  |  | can reach to IC50 value | 80.44 ± 0.68 ^f % | 100.40 ± 1.29 ^a % | 80.61 ± 0.41 ^e % | 92.05 ± 1.07 ^c % |  | 
SLPNFHPFPR [quinoa peptide identified from QPH fraction < 5 kDa] |  |  |  |  |  | can reach to IC50 value | 78.51 ± 0.26 ^g % | 97.79% | 78.00 ± 0.80 ^f % | 87.21 ± 0.32 ^d % |  | 
lunasin |  |  |  |  |  |  |  |  |  |  |  | 61.7 µM
FHPFPR [FHPFPR] | 90.04 ± 1.26 ^e % | 75.46 ± 0.86 ^f % | 51.41 ± 0.80 ^k % | 50.82 ± 0.76 ^j % | more than 30% | can reach to IC50 value |  |  |  |  | 1090 µM | 
HGSLGFLPR [quinoa peptide identified from QPH fraction < 5 kDa] |  |  |  |  |  |  | 96.81 ± 0.88 ^b % | 97.35 ± 1.03 ^c % | 95.80 ± 0.62 ^b % | 96.91% |  | 
NWFPLPR [NWFPLPR] | 92.86 ± 1.10 ^d % | 79.99 ± 0.86 ^e % | 64.02 ± 1.39 ^j % | 63.18 ± 0.83 ^i % | more than 30% | can reach to IC50 value |  |  |  |  | 1370 µM | 
